In patent US11434242B2, “Dopamine-b-hydroxylase inhibitors” (BIAL-PORTELA & Cª, S.A., priority 2017, dated 2022):

Molecular target: T1, Dopamine beta hydroxylase (Homo sapiens, UniProt P09172)
T1 construct: 125 μl of plasma; tissue Instituto Português do Sangue Transplantação; host or cells: human plasma from healthy donors
T1 sequence (P09172 40-617 limits assumed): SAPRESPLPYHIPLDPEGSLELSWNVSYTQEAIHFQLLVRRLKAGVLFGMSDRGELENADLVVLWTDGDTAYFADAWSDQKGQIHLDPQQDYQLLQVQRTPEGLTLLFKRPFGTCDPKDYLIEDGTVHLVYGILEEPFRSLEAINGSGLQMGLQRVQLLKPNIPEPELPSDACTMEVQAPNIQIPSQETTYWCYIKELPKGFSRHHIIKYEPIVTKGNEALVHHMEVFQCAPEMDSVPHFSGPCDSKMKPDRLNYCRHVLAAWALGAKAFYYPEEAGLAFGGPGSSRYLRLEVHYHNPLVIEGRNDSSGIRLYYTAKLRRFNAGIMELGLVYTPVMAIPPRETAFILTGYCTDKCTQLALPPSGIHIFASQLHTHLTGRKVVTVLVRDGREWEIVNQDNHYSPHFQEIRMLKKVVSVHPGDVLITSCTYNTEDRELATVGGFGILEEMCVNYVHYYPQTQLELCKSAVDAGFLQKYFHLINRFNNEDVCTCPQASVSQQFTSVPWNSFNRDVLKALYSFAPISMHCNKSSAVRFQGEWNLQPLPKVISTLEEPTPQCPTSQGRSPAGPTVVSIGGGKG
Assay: Dopamine beta hydroxylase activity in human plasma
Format: biochemical
Details: for Plasma (0.1 μM), activity in % of control: inhibitor 0.1 μM; for Plasma (1 μM), activity in % of control: inhibitor 1 μM
Method: Furthermore, the ability of a compound to inhibit DβH activity may be assessed in human plasma using the following assay. […]. Dopamine beta hydroxylase activity in human plasma was measured by the method of Nagatsu and Udenfriend (Nagatsu, T. and Udenfriend, S. “Photometric assay of dopamine-μ-hydroxylase activity in human blood.” Clin. Chem. 18(9) 980-983, 1972) with minor modifications. Catalase, N-ethylmaleimide, tyramine, disodium fumarate, pargyline, sodium acetate, ascorbic acid, copper sulfate and octopamine were obtained from Sigma Chemical Co., St. Louis, Mo. 63178. Human plasma samples were obtained from healthy donors (Instituto Português do Sangue Transplantação, Centro Sangue Transplantação, Porto, Portugal). From date of collection, plasma was stored at −80° C. until use. Test compounds were initially prepared in dimethyl sulfoxide at a concentration of 10 mM and diluted in dimethyl sulfoxide to the required concentrations. Test compounds were further diluted in ultrapure water to a concentration 20-fold to that of the final concentration to be tested. Final concentrations of test compounds were 10, 100 and 1000 nM. The various reagents used to make up the incubation buffer were premixed and consisted of the following components: sodium acetate buffer (1 M, pH 5.0, 18 ml), sodium fumarate (0.2 M, 4.5 ml), ascorbic acid (0.2 M, 4.5 ml, freshly prepared), pargyline (20 mM, freshly prepared, 4.5 ml), N-ethylmaleimide (0.2 M, 4.5 ml), catalase (10 000 U/ml, 9 ml), copper sulfate (20 μM, 4.5 ml) and 4.5 ultrapure water. The standard incubation mixture (total volume, 950 μl) contained: 50 μL of compound or vehicle (dimethyl sulfoxide 2%); 700 μL of incubation buffer; 125 μl of plasma (or saline for blank reaction or standard curve); 75 μl of saline. The reaction mixture was placed in water bath, shaking at 37° C. and pre-incubated for 10 minutes. Tyramine (0.5 M) was added and incubation proceeded for 45 minutes. The reaction contents were exposed to air. A sample of enzyme preparation (with 125 μl of plasma) that had been added perchloric acid 2 M at the end of the pre-incubation period was used as blank. A blank for each of the tested compounds was used. For octopamine standard curve, perchloric acid 2 M was replaced by increasing concentrations of octopamine prepared in perchloric acid 2 M (0.5, 1, 2.5, 5, 7.5, 10, 15, 20 μg/ml, final concentration). The incubation was stopped by adding 200 μl of 2 M molar perchloric acid, and the mixture was centrifuged at 9000 g for 5 min. The supernatant fluid (800 μL) was transferred to a column (SPE cartridge ISOLUTE SCX-3, 100 mg) and centrifuged at 150 g for 2 min. The column was washed two more times with 0.5 ml of ultrapure water by centrifuging at 150 g for 2 min. The adsorbed octopamine was eluted twice with 0.3 ml of 4 M ammonium hydroxide by centrifuging at 150 g for 2 min. Octopamine in the eluate was then converted to p-hydroxybenzaldehyde by adding 200 μl of sodium periodate (2%) and incubating for 6 min. Excess periodate was than reduced by adding 200 μl of sodium metabisulfite (10%). Absorbance was measured at […] in a 96-well plate by use of a SpectraMAX plus 384 (Molecular Devices) with software SOFTmax® PRO Software 5.3 spectrophotometer. Absorbance was linear with octopamine concentration from 0.5 to 20 μg/ml. Dopamine beta hydroxylase activity is determined as nmol of octopamine formed/ml of plasma/hour and effect of compounds is presented as % control.
Results are reported in the table below as activity in % of control at the inhibitor concentration tested.

Plasma (0.1 μM), activity in % of control | Plasma (1 μM), activity in % of control | SMILES
57.0 % of control | 11.9 % of control | CN(C)CCCNC(=O)Cc1[nH]c(=S)n2c1C[C@H](c1c(F)c(F)cc(F)c1F)C2.Cl [Example 71, (R)—N-(3-(dimethylamino)propyl)-2-(6-(2,3,5,6-tetrafluorophenyl)-3-thioxo-2,5,6,7-tetrahydro-3H-pyrrolo[1,2-c]imidazol-1-yl)acetamide Hydrochloride]
90.8 % of control | 28.9 % of control | O=C(Cc1[nH]c(=S)n2c1C[C@H](c1c(F)c(F)cc(F)c1F)C2)NCCO [Example 72, (R)—N-(2-hydroxyethyl)-2-(6-(2,3,5,6-tetrafluorophenyl)-3-thioxo-2,5,6,7-tetrahydro-3H-pyrrolo[1,2-c]imidazol-1-yl)acetamide]
75.9 % of control | 19.1 % of control | COCCNC(=O)Cc1[nH]c(=S)n2c1C[C@H](c1c(F)c(F)cc(F)c1F)C2 [Example 73, (R)—N-(2-methoxyethyl)-2-(6-(2,3,5,6-tetrafluorophenyl)-3-thioxo-2,5,6,7-tetrahydro-3H-pyrrolo[1,2-c]imidazol-1-yl)acetamide]
70.3 % of control | 8.1 % of control | O=C(Cc1[nH]c(=S)n2c1C[C@@H](c1cc(Br)ccc1F)C2)NC1CCCC1 [Example 74, (S)-2-(6-(5-bromo-2-fluorophenyl)-3-thioxo-2,5,6,7-tetrahydro-3H-pyrrolo[1,2-c]imidazol-1-yl)-N-cyclopentylacetamide]
91.0 % of control | 56.3 % of control | O=C(Cc1[nH]c(=S)n2c1C[C@H](c1cc(Cl)ccc1F)C2)N[C@@H]1CCOC1 [Example 75, 2-((R)-6-(5-chloro-2-fluorophenyl)-3-thioxo-2,5,6,7-tetrahydro-3H-pyrrolo[1,2-c]imidazol-1-yl)-N—((R)-tetrahydrofuran-3-yl)acetamide]
65.8 % of control | 13.1 % of control | O=C(Cc1[nH]c(=S)n2c1C[C@H](c1c(F)cccc1F)C2)NC1CCCC1 [Example 76, (R)—N-cyclopentyl-2-(6-(2,6-difluorophenyl)-3-thioxo-2,5,6,7-tetrahydro-3H-pyrrolo[1,2-c]imidazol-1-yl)acetamide]
87.2 % of control | 38.9 % of control | O=C(Cc1[nH]c(=S)n2c1C[C@H](c1c(F)cccc1F)C2)N[C@@H]1CCOC1 [Example 77, 2-((R)-6-(2,6-difluorophenyl)-3-thioxo-2,5,6,7-tetrahydro-3H-pyrrolo[1,2-c]imidazol-1-yl)-N—((R)-tetrahydrofuran-3-yl)acetamide]
77.3 % of control | 24.4 % of control | O=C(Cc1[nH]c(=S)n2c1C[C@H](c1c(F)c(F)cc(F)c1F)C2)NC1CC1 [Example 78, (R)—N-cyclopropyl-2-(6-(2,3,5,6-tetrafluorophenyl)-3-thioxo-2,5,6,7-tetrahydro-3H-pyrrolo[1,2-c]imidazol-1-yl)acetamide]
54.3 % of control | 10.3 % of control | O=C(Cc1[nH]c(=S)n2c1C[C@H](c1c(F)c(F)cc(F)c1F)C2)NCC1CC1 [Example 79, (R)—N-(cyclopropylmethyl)-2-(6-(2,3,5,6-tetrafluorophenyl)-3-thioxo-2,5,6,7-tetrahydro-3H-pyrrolo[1,2-c]imidazol-1-yl)acetamide]
60.7 % of control | 9.8 % of control | O=C(Cc1[nH]c(=S)n2c1C[C@H](c1c(F)c(F)cc(F)c1F)C2)NC1CCC1 [Example 80, (R)—N-cyclobutyl-2-(6-(2,3,5,6-tetrafluorophenyl)-3-thioxo-2,5,6,7-tetrahydro-3H-pyrrolo[1,2-c]imidazol-1-yl)acetamide]
69.2 % of control | 16.6 % of control | O=C(Cc1[nH]c(=S)n2c1C[C@H](c1c(F)c(F)cc(F)c1F)C2)N1CCC(O)CC1 [Example 82, (R)-1-(4-hydroxypiperidin-1-yl)-2-(6-(2,3,5,6-tetrafluorophenyl)-3-thioxo-2,5,6,7-tetrahydro-3H-pyrrolo[1,2-c]imidazol-1-yl)ethan-1-one]
78.8 % of control | 15.9 % of control | O=C(Cc1[nH]c(=S)n2c1C[C@H](c1c(F)c(F)cc(F)c1F)C2)N1CCC(CO)CC1 [Example 83, (R)-1-(4-(hydroxymethyl)piperidin-1-yl)-2-(6-(2,3,5,6-tetrafluorophenyl)-3-thioxo-2,5,6,7-tetrahydro-3H-pyrrolo[1,2-c]imidazol-1-yl)ethan-1-one]
24.5 % of control | 1.0 % of control | O=C(Cc1[nH]c(=S)n2c1C[C@@H](c1c(F)ccc(Cl)c1F)C2)NC1CCCC1 [Example 84, (S)-2-(6-(3-chloro-2,6-difluorophenyl)-3-thioxo-2,5,6,7-tetrahydro-3H-pyrrolo[1,2-c]imidazol-1-yl)-N-cyclopentylacetamide]
70.9 % of control | 14.7 % of control | NC(=O)C1CCN(C(=O)Cc2[nH]c(=S)n3c2C[C@H](c2c(F)c(F)cc(F)c2F)C3)CC1 [Example 86, (R)-1-(2-(6-(2,3,5,6-tetrafluorophenyl)-3-thioxo-2,5,6,7-tetrahydro-3H-pyrrolo[1,2-c]imidazol-1-yl)acetyl)piperidine-4-carboxamide]

SMILES | Plasma (0.1 μM), activity in % of control | Plasma (1 μM), activity in % of control
CN1CCN(C(=O)Cc2[nH]c(=S)n3c2C[C@H](c2c(F)c(F)cc(F)c2F)C3)CC1 [Example 81, (R)-1-(4-methylpiperazin-1-yl)-2-(6-(2,3,5,6-tetrafluorophenyl)-3-thioxo-2,5,6,7-tetrahydro-3H-pyrrolo[1,2-c]imidazol-1-yl)ethan-1-one] | 63.1 % of control | 15.9 % of control
CN(C)C(=O)CN1CCN(C(=O)Cc2[nH]c(=S)n3c2C[C@H](c2c(F)c(F)cc(F)c2F)C3)CC1 [Example 85, (R)—N,N-dimethyl-2-(4-(2-(6-(2,3,5,6-tetrafluorophenyl)-3-thioxo-2,5,6,7-tetrahydro-3H-pyrrolo[1,2-c]imidazol-1-yl)acetyl)piperazin-1-yl)acetamide] | 59.1 % of control | 12.2 % of control
